Counter-ions that a name gives are not always drawn. Like-named read-outs stand apart in the source and are kept apart here.
How the values were obtained:
[1] = test system: rat; test: Rat tail flick assay (tail flick latency in response to heat); assay type: in vivo; settings: read-out: % MPE (Maximum Possible Effect), tail flick
From the text: The Tail Flick Assay, based upon the methods of D'Amour & Smith (J. Pharmacol. Exp. Therap., 72: 74-79, 1941), is used to measure loss of pain sensation in the rat tail, allowing the experimenter to screen drugs for analgesic effect. Since then, the method has been used in a number of publications. For example, it was used to evaluate the analgesic effect of O-alkyl derivatives of tramadol by Liming Shao and Michael Hewitt etc. (Boiorganic & Medicinal Chemistry Letters, 18:1674-1680, 2008).
A Tail Flick Unit is used to measure tail flick latency in response to heat. The unit consists of an infrared (I.R.) source (50 W bulb) with adjustable intensity that is focused through a flush mounted window on the upper panel of the unit and onto the rat tail. Once I.R. source is focused on the rat tail and turned on, a timer starts. When the thermal threshold for pain is reached and the rat flicks its tail, the I.R source automatically shuts off and the timer stop, displaying the latency time.
On the day of experiment, the animals are tested to determine baseline latency. Each rat is given one test to determine latency to tail flick with a cut off 10 seconds. Baselines are recorded and those animals with a baseline latency of 2-5 seconds are used in the experiment. Animals are divided into several groups according to the baseline latency. The Tail-flick latencies are measured at different timepoints for up to 180 minutes after administration of vehicle or test articles. If treatment group continues to display pain control after 180 minutes, additional measurements are taken every 60 minutes until pain control is no longer observed.
I.R. Source is set at 40 units (determined to elicit tail flick response in desired 2-5 seconds in naïve animals).
Test articles or vehicle are administered by intravenous (IV) injection through the tail vein or by oral gavage at time 0. Animals are gently restrained and held on top of a tail flick unit. The tail is then wiped clean with a cotton square and placed over the I.R. source so that the beam is focused at approximately midway the length of the tail. After the rat is in position, the I.R. source is turned on. When the thermal threshold for pain is reached, the rat flicked its tail and the I.R. source automatically shuts off. Latency time (in seconds) is then recorded.
Data are recorded and graphed as % MPE (Maximum Possible Effect). % MPE is calculated using the following formula: % MPE=[(Test latency−Baseline latency)/(Cut off latency(10 sec.'s)−Baseline latency)]*100
Compounds were administered by the IV route in 20% 2-hydroxypropyl-beta-cyclodextrin (20% HP-β-CD). The dose levels of test article were 2.5, 5, or 20 mg/kg. Examples 2, 3, 13, 40, 77, 78, 114, and Tramadol provided at least 50% MPE at 20 mg/kg. Compounds 5, 8, 17, 105, 107, 148, 158, and 159 provided at least 50% MPE at 5 mg/kg. Compounds 82, 84, and 116 provided at least 50% MPE at 2.5 mg/kg.
Compounds were administered by oral gavage in 0.5% methylcellulose at 20 or 30 mg/kg. Examples 2, 3, 13, 115, and Tramadol provided at least 50% MPE at 30 mg/kg. Compounds 5, 39, 65, 106, and 115 provided at least 50% MPE at 20 mg/kg.

[2] = Unspecified bioassay(s); settings: comparison of the two enantiomers of Example 181
[3] = oral gavage in 0.5% methylcellulose

Compound: COc1cccc([C@@]2(O)C[C@H]3CCC(C3)[C@@H]2CN(C)C)c1 (stereo in doubt) [Example 2, 2-dimethylaminomethyl-3-(3-methoxy-phenyl)-bicyclo[3.2.1]octan-3-ol]
- inhibition in vivo at 20 mg/kg ([1]; IV in 20% HP-β-CD): ≥ 50%
- inhibition in vivo at 30 mg/kg [1, 3]: ≥ 50%

Compound: COc1cc(F)cc([C@@]2(O)C[C@H]3CC[C@H](C3)[C@@H]2CN(C)C)c1 (stereo in doubt) [Example 3, 2-Dimethylaminomethyl-3-(3-fluoro-5-methoxy-phenyl)-bicyclo[3.2.1]octan-3-ol]
- inhibition in vivo at 20 mg/kg ([1]; IV in 20% HP-β-CD): ≥ 50%
- inhibition in vivo at 30 mg/kg [1, 3]: ≥ 50%

Compound: COc1ccc(F)c([C@@]2(O)C[C@H]3CC[C@H](C3)[C@@H]2CN(C)C)c1 (stereo in doubt) [Example 5, 2-Dimethylaminomethyl-3-(2-fluoro-5-methoxy-phenyl)-bicyclo[3.2.1]octan-3-ol]
- inhibition in vivo at 20 mg/kg [1, 3]: ≥ 50%

Compound: COc1cc(C)cc([C@@]2(O)C[C@H]3CC[C@H](C3)[C@@H]2CN(C)C)c1 (stereo in doubt) [Example 8, 2-Dimethylaminomethyl-3-(3-methoxy-5-methyl-phenyl)-bicyclo[3.2.1]octan-3-ol]
- inhibition in vivo at 5 mg/kg ([1]; IV in 20% HP-β-CD): ≥ 50%

Compound: CN(C)C[C@H]1[C@@H]2CC[C@@H](C2)C[C@]1(O)c1cccc(O)c1 (stereo in doubt) [Example 13, 2-Dimethylaminomethyl-3-(3-hydroxy-phenyl)-bicyclo[3.2.1]octan-3-ol]
- inhibition in vivo at 20 mg/kg ([1]; IV in 20% HP-β-CD): ≥ 50%
- inhibition in vivo at 30 mg/kg [1, 3]: ≥ 50%

Compound: CN(C)C[C@H]1C2CC[C@@H](C2)C[C@]1(O)c1cc(O)ccc1F (stereo in doubt) [Example 39, 2-dimethylaminomethyl-3-(2-fluoro-5-hydroxy-phenyl)-bicyclo[3.2.1]octan-3-ol]
- inhibition in vivo at 20 mg/kg [1, 3]: ≥ 50%

Compound: CN(C)C[C@H]1[C@@H]2CC[C@@H](C2)C[C@]1(O)c1cc(O)cc(F)c1 (stereo in doubt) [Example 40, 2-Dimethylaminomethyl-3-(3-fluoro-5-hydroxy-phenyl)-bicyclo[3.2.1]octan-3-ol]
- inhibition in vivo at 20 mg/kg ([1]; IV in 20% HP-β-CD): ≥ 50%

Compound: CN(C)C[C@@H]1C(c2cccc(O)c2)=C[C@@H]2CC[C@H]1C2 (stereo in doubt) [Example 77, 3-(4-dimethylaminomethyl-bicyclo[3.2.1]oct-2-en-3-yl)-phenol]
- inhibition in vivo at 20 mg/kg ([1]; IV in 20% HP-β-CD): ≥ 50%

Compound: COc1cccc(C2=C[C@H]3CC[C@H](C3)[C@@H]2CN(C)C)c1 (stereo in doubt) [Example 78, [3-(3-Methoxy-phenyl)-bicyclo[3.2.1]oct-3-en-2-ylmethyl]-dimethyl-amine]
- inhibition in vivo at 20 mg/kg ([1]; IV in 20% HP-β-CD): ≥ 50%

Compound: CN(C)C[C@@H]1C(c2cc(O)cc(F)c2)=C[C@H]2CC[C@@H]1C2 (stereo in doubt) [Example 82, 3-(4-Dimethylaminomethyl-bicyclo[3.2.1]oct-2-en-3-yl)-5-fluoro-phenol]
- inhibition in vivo at 2.5 mg/kg ([1]; IV in 20% HP-β-CD): ≥ 50%

Compound: CN(C)C[C@@H]1C(c2cc(O)ccc2F)=C[C@H]2CC[C@@H]1C2 (stereo in doubt) [Example 84, 3-(4-Dimethylaminomethyl-bicyclo[3.2.1]oct-2-en-3-yl)-4-fluoro-phenol]
- inhibition in vivo at 2.5 mg/kg ([1]; IV in 20% HP-β-CD): ≥ 50%

Compound: CN(C)C[C@@H]1C(c2cccc(OC(=O)C(C)(C)C)c2)=C[C@@H]2CC[C@H]1C2 (stereo in doubt) [Example 105, 2,2-dimethyl-propionic acid 3-(4-dimethylaminomethyl-bicyclo[3.2.1]oct-2-en-3-yl)-phenyl ester]
- inhibition in vivo at 5 mg/kg ([1]; IV in 20% HP-β-CD): ≥ 50%

Compound: CN(C)C[C@@H]1C(c2cccc(OC(=O)c3ccccc3)c2)=C[C@H]2CC[C@@H]1C2 (stereo in doubt) [Example 106, Benzoic acid 3-(4-dimethylaminomethyl-bicyclo[3.2.1]oct-2-en-3-yl)-phenyl ester]
- inhibition in vivo at 20 mg/kg [1, 3]: ≥ 50%

Compound: CN(C)C[C@H]1[C@H]2CC[C@H](C2)C[C@H]1c1cccc(O)c1 (stereo in doubt) [Example 114, 3-(2-dimethylaminomethyl-bicyclo[3.2.1]oct-3-yl)-phenol]
- inhibition in vivo at 20 mg/kg ([1]; IV in 20% HP-β-CD): ≥ 50%

Compound: COc1cccc([C@@H]2C[C@H]3CC[C@H](C3)[C@@H]2CN(C)C)c1 (stereo in doubt) [Example 115, [3-(3-methoxy-phenyl)-bicyclo[3.2.1]oct-2-ylmethyl]-dimethyl-amine]
- inhibition in vivo at 20 mg/kg [1, 3]: ≥ 50%
- inhibition in vivo at 30 mg/kg [1, 3]: ≥ 50%

Compound: CN(C)C[C@H]1[C@@H]2CC[C@@H](C2)C[C@H]1c1cc(O)cc(F)c1 (stereo in doubt) [Example 116, 3-(2-dimethylaminomethyl-bicyclo[3.2.1]oct-3-yl)-5-fluoro-phenol]
- inhibition in vivo at 2.5 mg/kg ([1]; IV in 20% HP-β-CD): ≥ 50%

Compound: COc1cccc([C@]2(O)[C@@H](CN(C)C)CC[C@@H]3C[C@@H]32)c1 (stereo in doubt) [Example 148, 3-Dimethylaminomethyl-2-(3-methoxy-phenyl)-bicyclo[4.1.0] heptan-2-ol]
- inhibition in vivo at 5 mg/kg ([1]; IV in 20% HP-β-CD): ≥ 50%

Compound: CN(C)C[C@H]1CC[C@@H]2C[C@@H]2[C@]1(O)c1cc(O)ccc1F (stereo in doubt) [Example 158, 3-Dimethylaminomethyl-2-(2-fluoro-5-hydroxy-phenyl)-bicyclo[4.1.0] heptan-2-ol]
- inhibition in vivo at 5 mg/kg ([1]; IV in 20% HP-β-CD): ≥ 50%

Compound: Cc1cc(O)cc([C@]2(O)[C@@H](CN(C)C)CC[C@@H]3C[C@@H]32)c1 (stereo in doubt) [Example 159, 3-Dimethylaminomethyl-2-(3-hydroxy-5-methyl-phenyl)-bicyclo[4.1.0] heptan-2-ol]
- inhibition in vivo at 5 mg/kg ([1]; IV in 20% HP-β-CD): ≥ 50%

Compound: CN(C)C[C@H]1[C@H]2CC[C@H](C2)C[C@]1(O)c1cccc(O)c1 [(+)-Enantioisomers, (+)-(1S,2R,3R,5R)-2-((dimethylamino)methyl)-3-(3-hydroxyphenyl)bicyclo[3.2.1]octan-3-ol]
- biological activity in bioassay(s) [2]: better biological activity than (−)-enantioisomer

Compound: COc1ccc(F)c([C@@]2(O)C[C@H]3CC[C@H](C3)[C@@H]2CN(C)C)c1 [Example 17, 2-Dimethylamino-methyl-3-(2-fluoro-5-methoxy-phenyl)-bicyclo[3.2.1]octan-3-ol hydrochloride]
- inhibition in vivo at 5 mg/kg ([1]; IV in 20% HP-β-CD): ≥ 50%

Compound: CN(C)C[C@H]1C2CC[C@@H](C2)C[C@]1(O)c1cc(OC(=O)C(C)(C)C)ccc1F [Example 65, 2,2-dimethyl-propionic acid 3-(2-dimethylaminomethyl-3-hydroxy-bicycle[3.2.1]oct-3-yl)-4-fluoro-phenyl ester]
- inhibition in vivo at 20 mg/kg [1, 3]: ≥ 50%

Compound: CN(C)C[C@@H]1C(c2cc(F)cc(OC(=O)C(C)(C)C)c2)=C[C@H]2CC[C@@H]1C2 [Example 107, 2,2-Dimethyl-propionic-acid 3-(4-dimethyl-aminomethyl-bicyclo[3.2.1]oct-2-en-3-yl)-5-fluoro-phenyl ester]
- inhibition in vivo at 5 mg/kg ([1]; IV in 20% HP-β-CD): ≥ 50%

Compound: COc1cccc(C2(O)CCCCC2CN(C)C)c1 (centres unmarked) [Tramadol, reference compound]
- inhibition in vivo at 20 mg/kg ([1]; IV in 20% HP-β-CD): ≥ 50%
- inhibition in vivo at 30 mg/kg [1, 3]: ≥ 50%
